Experiments:
[1] = biological target: T1, Tyrosyl-DNA phosphodiesterase 2 (Homo sapiens, UniProt O95551); test: Inhibition of N-terminal His-tagged human TDP2 expressed in Escherichia coli BL21 using 4-nitrophenyl phenylphosphonate as substrate incubated for 60 mins by EDTA based chromogenic assay
T1 sequence (O95551 whole entry): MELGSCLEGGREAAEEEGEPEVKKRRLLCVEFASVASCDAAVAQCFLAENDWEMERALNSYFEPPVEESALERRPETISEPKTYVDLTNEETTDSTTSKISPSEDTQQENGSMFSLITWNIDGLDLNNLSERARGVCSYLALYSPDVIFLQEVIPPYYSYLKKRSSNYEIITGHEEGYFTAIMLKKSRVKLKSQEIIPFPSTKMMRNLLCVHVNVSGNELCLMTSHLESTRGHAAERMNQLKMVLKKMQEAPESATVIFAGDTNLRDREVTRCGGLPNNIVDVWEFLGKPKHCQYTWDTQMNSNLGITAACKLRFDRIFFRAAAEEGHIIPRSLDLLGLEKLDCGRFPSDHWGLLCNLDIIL

DU-145 = test: Cytotoxicity against human DU-145 cells assessed as cell growth inhibition for 72 hrs by MTT assay; assay type: functional
A549 = test: Cytotoxicity against human A549 cells assessed as cell growth inhibition for 72 hrs by MTT assay; assay type: functional

Compound | IC50 [1] | GI50 (DU-145; Homo sapiens, DU-145, 72 h) | GI50 (A549; Homo sapiens, A549, 72 h) | GI50 (DU-145; 72 h) | GI50 (A549; 72 h)
CC(C)[C@@H]1C2=C(Oc3c1c(OCC1CC1)cc1c3[C@@H](C(C)C)C3=C(O1)C(C)(C)C(=O)C(C)(C)C3=O)C(C)(C)C(=O)C(C)(C)C2=O | 42 µM | 13 µM | 24 µM | – | –
CCN(CC)CCCOc1cc2c(c3c1[C@H](C(C)C)C1=C(O3)C(C)(C)C(=O)C(C)(C)C1=O)[C@@H](C(C)C)C1=C(O2)C(C)(C)C(=O)C(C)(C)C1=O | 20 µM | 25 µM | 85 µM | – | –
COc1ccc(COc2cc3c(c4c2[C@H](C(C)C)C2=C(O4)C(C)(C)C(=O)C(C)(C)C2=O)[C@@H](C(C)C)C2=C(O3)C(C)(C)C(=O)C(C)(C)C2=O)cc1 | 56 µM | 40 µM | 32 µM | – | –
CC(C)C1C2=C(Oc3c1c(O)cc1c3C(C(C)C)C3=C(O1)C(C)(C)C(=O)C(C)(C)C3=O)C(C)(C)C(=O)C(C)(C)C2=O (racemic; form 1) | 29 µM | 13 µM | 26 µM | – | –
CC(C)[C@@H]1C2=C(Oc3c1c(OCCC1OCCO1)cc1c3[C@@H](C(C)C)C3=C(O1)C(C)(C)C(=O)C(C)(C)C3=O)C(C)(C)C(=O)C(C)(C)C2=O | 17 µM | 12 µM | 21 µM | – | –
CC(C)[C@@H]1C2=C(Oc3c1c(OCCCc1ccccc1)cc1c3[C@@H](C(C)C)C3=C(O1)C(C)(C)C(=O)C(C)(C)C3=O)C(C)(C)C(=O)C(C)(C)C2=O | 26 µM | 29 µM | 43 µM | – | –
CC(C)CCOc1cc2c(c3c1[C@H](C(C)C)C1=C(O3)C(C)(C)C(=O)C(C)(C)C1=O)[C@@H](C(C)C)C1=C(O2)C(C)(C)C(=O)C(C)(C)C1=O | 26 µM | 19 µM | 37 µM | – | –
CC(C)[C@@H]1C2=C(Oc3c1c(OCc1ccccc1)cc1c3[C@@H](C(C)C)C3=C(O1)C(C)(C)C(=O)C(C)(C)C3=O)C(C)(C)C(=O)C(C)(C)C2=O | 54 µM | 19 µM | 36 µM | – | –
COc1cc(O)c2c(c1C(=O)C(C)C)OC1=C(C(=O)C(C)(C)C(=O)C1(C)C)[C@H]2C(C)C | > 100 µM | 16 µM | 30 µM | – | –
CC(C)C(=O)c1c(O)c2c(c3c1OC1=C(C(=O)C(C)(C)C(=O)C1(C)C)[C@H]3C(C)C)OC1=C(C(=O)C(C)(C)C(=O)C1(C)C)[C@H]2C(C)C | 32 µM | 38 µM | 65 µM | – | –
CC(C)C1C2=C(Oc3c1c(O)cc1c3C(C(C)C)C3=C(O1)C(C)(C)C(=O)C(C)(C)C3=O)C(C)(C)C(=O)C(C)(C)C2=O (racemic; form 2) | 32 µM | – | – | 15 µM | 44 µM
CC(C)[C@H]1C2=C(Oc3c1c(O)cc1c3[C@@H](C(C)C)C3=C(O1)C(C)(C)C(=O)C(C)(C)C3=O)C(C)(C)C(=O)C(C)(C)C2=O | 32 µM | 16 µM | 38 µM | – | –
CCOc1cc2c(c3c1[C@H](C(C)C)C1=C(O3)C(C)(C)C(=O)C(C)(C)C1=O)[C@@H](C(C)C)C1=C(O2)C(C)(C)C(=O)C(C)(C)C1=O | 21 µM | 12 µM | 24 µM | – | –
CC(C)[C@@H]1C2=C(Oc3c1c(OCCN1CCCC1)cc1c3[C@@H](C(C)C)C3=C(O1)C(C)(C)C(=O)C(C)(C)C3=O)C(C)(C)C(=O)C(C)(C)C2=O | 22 µM | 22 µM | 46 µM | – | –
CC(C)[C@@H]1C2=C(Oc3c1c(OCCCN1CCCC1)cc1c3[C@@H](C(C)C)C3=C(O1)C(C)(C)C(=O)C(C)(C)C3=O)C(C)(C)C(=O)C(C)(C)C2=O | 19 µM | 38 µM | 50 µM | – | –
CC(C)[C@@H]1C2=C(Oc3c1c(OCCN1CCOCC1)cc1c3[C@@H](C(C)C)C3=C(O1)C(C)(C)C(=O)C(C)(C)C3=O)C(C)(C)C(=O)C(C)(C)C2=O | 25 µM | 27 µM | 39.6 µM | – | –

Compound | IC50 [1] | GI50 (DU-145; Homo sapiens, DU-145, 72 h) | GI50 (A549; Homo sapiens, A549, 72 h) | GI50 (DU-145; 72 h) | GI50 (A549; 72 h)
CC(C)C(=O)c1c(O)c2c(c3c1OC1=C(C(=O)C(C)(C)C(=O)C1(C)C)[C@@H]3C(C)C)OC1=C(C(=O)C(C)(C)C(=O)C1(C)C)[C@@H]2C(C)C | 48 µM | – | – | 15 µM | 28 µM
Cc1ccc(COc2cc3c(c4c2[C@H](C(C)C)C2=C(O4)C(C)(C)C(=O)C(C)(C)C2=O)[C@@H](C(C)C)C2=C(O3)C(C)(C)C(=O)C(C)(C)C2=O)cc1 | 31 µM | 15 µM | 29 µM | – | –
CC(C)[C@@H]1C2=C(Oc3c1c(OCCCN1CCOCC1)cc1c3[C@@H](C(C)C)C3=C(O1)C(C)(C)C(=O)C(C)(C)C3=O)C(C)(C)C(=O)C(C)(C)C2=O | 20 µM | 26 µM | 65.7 µM | – | –
COc1c(C(=O)C(C)C)c2c(c3c1[C@@H](C(C)C)C1=C(O3)C(C)(C)C(=O)C(C)(C)C1=O)[C@@H](C(C)C)C1=C(O2)C(C)(C)C(=O)C(C)(C)C1=O (racemic) | 57 µM | 20 µM | 32 µM | – | –
CC(C)[C@@H]1C2=C(Oc3c1c(OCCCN(C)C)cc1c3[C@@H](C(C)C)C3=C(O1)C(C)(C)C(=O)C(C)(C)C3=O)C(C)(C)C(=O)C(C)(C)C2=O | 10 µM | 23 µM | 46 µM | – | –
CC(COc1cc2c(c3c1[C@H](C(C)C)C1=C(O3)C(C)(C)C(=O)C(C)(C)C1=O)[C@@H](C(C)C)C1=C(O2)C(C)(C)C(=O)C(C)(C)C1=O)CN(C)C (stereo partly drawn) | 12 µM | 28 µM | 46 µM | – | –
CCOC(CCCOc1cc2c(c3c1[C@H](C(C)C)C1=C(O3)C(C)(C)C(=O)C(C)(C)C1=O)[C@@H](C(C)C)C1=C(O2)C(C)(C)C(=O)C(C)(C)C1=O)OCC | 41 µM | 27 µM | 62 µM | – | –
CC(C)[C@@H]1C2=C(Oc3c1c(O)cc1c3[C@H](C(C)C)C3=C(O1)C(C)(C)C(=O)C(C)(C)C3=O)C(C)(C)C(=O)C(C)(C)C2=O | 36 µM | 26 µM | 56 µM | – | –
CC(C)Oc1cc2c(c3c1[C@H](C(C)C)C1=C(O3)C(C)(C)C(=O)C(C)(C)C1=O)[C@@H](C(C)C)C1=C(O2)C(C)(C)C(=O)C(C)(C)C1=O | 28 µM | 20 µM | 33 µM | – | –
CC(C)[C@@H]1C2=C(Oc3cc(O)c4c(c31)OC1=C(C(=O)C(C)(C)C(=O)C1(C)C)[C@@H]4C(C)C)C(C)(C)C(=O)C(C)(C)C2=O | 34 µM | 28 µM | 32 µM | – | –
CC(C)C(=O)c1c(O)c2c(c3c1OC1=C(C(=O)C(C)(C)C(=O)C1(C)C)[C@@H]3C(C)C)OC1=C(C(=O)C(C)(C)C(=O)C1(C)C)[C@H]2C(C)C | 39 µM | 31 µM | 62 µM | – | –
CC(C)C(=O)c1c(O)c2c(c3c1OC1=C(C(=O)C(C)(C)C(=O)C1(C)C)[C@@H]3C(C)C)OC1=C(C(=O)C(C)(C)C(=O)C1(C)C)[C@@H]2C(C)C (racemic) | 33 µM | 26 µM | 37 µM | – | –
CC(C)[C@@H]1C2=C(Oc3c1c(OCCN(C)C)cc1c3[C@@H](C(C)C)C3=C(O1)C(C)(C)C(=O)C(C)(C)C3=O)C(C)(C)C(=O)C(C)(C)C2=O | 11 µM | 22 µM | 54 µM | – | –
CC(C)C(=O)c1c(O)c2c(c3c1OC1=C(C(=O)C(C)(C)C(=O)C1(C)C)[C@H]3C(C)C)OC1=C(C(=O)C(C)(C)C(=O)C1(C)C)[C@@H]2C(C)C (racemic) | 41 µM | – | – | 17 µM | 26 µM
COc1cc(O)c2c(c1C(=O)C(C)C)OC1=C(C(=O)C(C)(C)C(=O)C1(C)C)[C@@H]2C(C)C | > 100 µM | 28 µM | 50 µM | – | –

Reference: ChEMBL document CHEMBL5113405, “Discovery, enantioselective synthesis of myrtucommulone E analogues as tyrosyl-DNA phosphodiesterase 2 inhibitors and their biological activities” (Eur J Med Chem, 2022)
